Measured values reported in patent publication US20080119515A1, “Heterocyclic Kinase Inhibitors: Methods of Use and Synthesis” (priority 2003, published 2008).
pIC50: −log10 of the molar value.

Target: T1, ZAP-70 (Homo sapiens, UniProt P43403)
T1 sequence (P43403 1-619): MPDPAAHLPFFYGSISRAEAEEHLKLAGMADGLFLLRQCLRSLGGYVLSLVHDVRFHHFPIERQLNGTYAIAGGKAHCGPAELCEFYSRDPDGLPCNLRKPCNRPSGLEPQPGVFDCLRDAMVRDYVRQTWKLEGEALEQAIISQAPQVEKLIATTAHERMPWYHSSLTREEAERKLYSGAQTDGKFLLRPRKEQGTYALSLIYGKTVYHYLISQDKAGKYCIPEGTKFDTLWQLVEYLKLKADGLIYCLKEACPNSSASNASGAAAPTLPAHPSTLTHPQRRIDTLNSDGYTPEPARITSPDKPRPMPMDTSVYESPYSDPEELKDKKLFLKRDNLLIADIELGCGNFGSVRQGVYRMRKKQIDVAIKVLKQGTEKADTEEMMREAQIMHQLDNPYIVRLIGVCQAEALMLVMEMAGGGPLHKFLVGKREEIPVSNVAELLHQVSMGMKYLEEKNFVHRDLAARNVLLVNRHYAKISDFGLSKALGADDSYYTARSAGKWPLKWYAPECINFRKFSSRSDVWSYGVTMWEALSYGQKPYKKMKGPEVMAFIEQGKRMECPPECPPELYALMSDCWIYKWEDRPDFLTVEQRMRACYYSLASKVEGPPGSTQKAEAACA
Test: DELFIA assay (ZAP-70 kinase, phosphorylation of biotinylated poly(glu,tyr))
Type: biochemical
Conditions: ZAP-70 DELFIA, class symbols; read-out: Activity (IC50 in vitro)
Outline: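 3.1 nM ZAP-70 pre-incubated 10 min at room temperature with compound ([…]) and 62.5 nM biotinylated poly(glu,tyr) in 62.5 mM Mops pH 7.0, 12.5 mM MgCl2, 12.5% glycerol, 6.25% DMSO (pre-incubation concentrations); ATP added from 5 mM stock, 30 min reaction, EDTA stop. Phosphorylation read by DELFIA europium anti-phosphotyrosine fluorescence (340/615).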

Row | Compound | pIC50
1 | N#Cc1ccc(-c2ccc3nc(NCC4(c5cccs5)CC4)cc(C(=O)N4CCC[C@H]4CN4CCCC4)c3c2)cc1 [Compound 272] | < 5.00
2 | O=C(c1cc(NCC(O)c2ccccc2)nc2ccc(-c3ccc4c(c3)OCO4)cc12)N1CCC[C@H]1CN1CCCC1 (stereo partly shown) [Compound 55] | > 6.00
3 | O=C(Nc1ccc2[nH]ncc2c1)c1cc(NCc2ccccc2)nc2ccc(-c3ccc4c(c3)OCO4)cc12 [Compound 86] | 5.00 to 6.00
4 | CN(CCc1ccccc1)c1cc(C(=O)N2CCC[C@H]2CN2CCCC2)cc(-c2ccccc2)n1 [Compound 367] | < 5.00
5 | N#Cc1ccc(-c2ccc3nc(N4Cc5ccccc5C[C@H]4CO)cc(C(=O)N4CCC[C@H]4CN4CCCC4)c3c2)cc1 [Compound 245] | < 5.00
6 | CCN(Cc1ccccc1)c1cc(C(=O)N2CCC[C@H]2CN2CCCC2)c2cc(-c3ccc4c(c3)OCO4)ccc2n1 [Compound 68] | > 6.00
7 | N#Cc1ccc(-c2ccc3nc(NCc4ccccc4N4CCCCC4)cc(C(=O)N4CCC[C@H]4CN4CCCC4)c3c2)cc1 [Compound 235] | < 5.00
8 | N#Cc1ccc(-c2ccc3nc(N4CCc5[nH]c6c(F)cccc6c5C4)cc(C(=O)N4CCC[C@H]4CN4CCCC4)c3c2)cc1 [Compound 215] | < 5.00
9 | O=C(c1cc(Cl)nc2ccccc12)N1CCC[C@H]1CN1CCCC1 [Compound 3] | < 5.00
10 | N=C(NC1CC1)[C@@H]1CCCN1C(=O)c1cc(NCc2ccc(C(F)(F)F)cc2)nc2ccc(-c3ccc4c(c3)OCO4)cc12 [Compound 377] | < 5.00
11 | N#Cc1csc2ccc(-c3ccc4nc(NCc5ccc(C(F)(F)F)cc5)cc(C(=O)N5CCC[C@H]5CN5CCCC5)c4c3)cc12 [Compound 351] | > 6.00
12 | COc1ccc(CCc2cc(C(=O)N3CCC[C@H]3CN3CCCC3)c3cc(-c4ccc5c(c4)OCO5)ccc3n2)cc1 [Compound 409] | < 5.00
13 | COc1cccc([C@H](C)Nc2cc(C(=O)N3CCC[C@H]3CN3CCCC3)c3cc(-c4ccc(C#N)cc4)ccc3n2)c1 [Compound 204] | < 5.00
14 | CN(C)CCCN1CCN(c2ccc(Cc3cc(C(=O)N4CCCC4CN4CCCC4)c4cc(-c5ccc6c(c5)OCO6)ccc4n3)cc2)CC1 (stereo not shown) [Compound 441] | > 6.00
15 | N#Cc1ccc(-c2ccc3nc(N(CCCO)Cc4ccccc4)cc(C(=O)N4CCC[C@H]4CN4CCCC4)c3c2)cc1 [Compound 213] | < 5.00
16 | O=C(c1cc(NCc2ccc(Cl)cc2)nc2ccc(-c3ccc4c(c3)OCO4)cc12)N1CCCC[C@H]1CN1CCCC1 [Compound 376] | 5.00 to 6.00
17 | CCN(Cc1ccc(C)cc1)c1cc(C(=O)N2CCC[C@H]2CN2CCCC2)c2cc(-c3ccc(C#N)cc3)ccc2n1 [Compound 244] | < 5.00
18 | CC(=O)Nc1cccc(-c2ccc3nc(NCc4ccc(C(F)(F)F)cc4)cc(C(=O)N4CCC[C@H]4CN4CCCC4)c3c2)c1 [Compound 297] | < 5.00
19 | O=C(c1cc(NCc2ccccc2Cl)nc2ccc(-c3ccc4c(c3)OCO4)cc12)N1CCC[C@H]1CN1CCCC1 [Compound 36] | > 6.00
20 | O=C(c1cc(Nc2ccccn2)nc2ccc(-c3ccc4c(c3)OCO4)cc12)N1CCC[C@H]1CN1CCCC1 [Compound 19] | > 6.00
21 | O=C(c1cc(NCc2ccc(C(F)(F)F)cc2)nc2ccc(-c3ccc4c(c3)OCO4)cc12)N1CCC[C@H]1CN1CCCC1 [Compound 44] | > 6.00
22 | O=C(Nc1ccc2[nH]ncc2c1)c1cc(NCc2ccc(C(F)(F)F)cc2)nc2ccc(-c3ccc4c(c3)OCO4)cc12 [Compound 88] | < 5.00
23 | COc1ccc(Nc2cc(C(=O)N3CCC[C@H]3CN3CCCC3)c3cc(-c4ccc5c(c4)OCO5)ccc3n2)cc1 [Compound 15] | > 6.00
24 | Cc1ccc(CCc2cc(C(=O)N3CCC[C@H]3CN3CCCC3)c3cc(-c4ccc5c(c4)OCO5)ccc3n2)cc1 [Compound 392] | > 6.00
25 | O=C(c1cc(/C=C/c2ccccc2)nc2ccc(-c3ccc4c(c3)OCO4)cc12)N1CCC[C@H]1CN1CCCC1 [Compound 130] | 5.00 to 6.00
26 | Clc1cc(CN2CCC[C@H]2CN2CCCC2)c2cc(-c3ccc4c(c3)OCO4)ccc2n1 [Compound 93] | < 5.00
27 | O=C(c1cc(NCc2ccc(C(F)(F)F)cc2)nc2ccc(-c3ccc4c(c3)OC(F)(F)C(F)(F)O4)cc12)N1CCC[C@H]1CN1CCCC1 [Compound 125] | > 6.00
28 | COc1ccc(C#Cc2cc(C(=O)N3CCC[C@H]3CN3CCCC3)c3cc(-c4ccc5c(c4)OCO5)ccc3n2)cc1 [Compound 403] | > 6.00
